Literature values in US12029811B2, “Formulation and method for the treatment of androgenic alopecia” (CENTRO INTERNACIONAL DE COSMIATRÍA, S.A.P.I. DE C.V., priority 2018, dated 2024).

Assays:
alopecia = conditions: topical 5% solution (male) or 2% (female alopecia)
patients = conditions: oral, 5 mg tablets; impotence, erection failure, decreased libido, gynecomastia

SMILES | Individuals responding to the treatment (alopecia) | Side effects (in words) (patients)
Nc1cc(N2CCCCC2)nc(N)[n+]1[O-] [Minoxidil, 2,6-diamino-4-(piperidin-1-yl) pyrimidine 1-oxide] | ≤ 40% | –
CC(C)(C)NC(=O)[C@H]1CC[C@H]2[C@@H]3CC[C@H]4NC(=O)C=C[C@]4(C)[C@H]3CC[C@]12C [Finasteride, N-(1,1-dimethylethyl)-3-oxo-4-aza 5a-androst-1-en-17β-carboxamide] | – | side effects were significant
